From patent publication US8716293B2, “Macrocyclic integrase inhibitors” (Janssen R&D Ireland, priority 2010, dated 2014)

Legend:
HIV-1 SDM strain Q148R = experiment: cell-based HIV-1 replication assay in MT4-LTR-EGFP cells, Q148R mutant; details: fold change in activity against Q148R mutant compared to wild type HIV
From the text: (§1) MT4-LTR-enhanced green fluorescent protein (EGFP) cells were obtained by transfecting MT4 cells with a selectable construct encompassing the coding sequences for the HIV LTR as a promoter for the expression of EGFP and subsequent selection of permanently transfected cells. MT4-cytomegalovirus (CMV)-EGFP cells were obtained by selection for permanently transformed MT4 cells with a CMV-EGFP reporter gene. Cell lines were maintained in RPMI 1640 medium supplemented with 10% heat-inactivated fetal calf serum, 2 mM L-glutamine, 0.1% NaHCO3, and antibiotics (0.02% gentamicin and 0.8% G418) and incubated in a humidified incubator with a 5% CO2 atmosphere at 37° C.
(§2) N155H and Q148R mutant Integrase coding sequences were constructed in the pUC19-5′HXB2D vector (XbaI-SalI fragment of pHXB2D), containing the HIV-1 clone HXB2D IN coding sequence, by using a QuikChange site-directed mutagenesis kit (Stratagene, La Jolla, Calif.) and HPLC-purified primers (Genset Oligos, La Jolla, Calif.). Altered plasmid sequences were confirmed by dideoxyribose sequencing. For generation of site-directed mutant (SDM) virus stocks, MT4 cells were subcultured at a density of 250,000 cells/ml on the day before transfection. Cells were pelleted and resuspended in phosphate-buffered saline at a concentration of 3.1×10^6 cells/ml. A 0.8-ml portion ([…]) was used for each transfection. Transfections were performed with a Bio-Rad Gene Pulser (Bio-Rad, Hercules, Calif.) with 0.4-cm electrode cuvettes (Bio-Rad). Cells were electroporated with 10 μg of SalI-linearized pUC19-3′HXB2D (SalI-XbaI fragment of pHXB2D) and 5 μg of SalI-digested SDM at 250 μF and 300 V, followed by a 30-min incubation at room temperature. Ten ml of fresh culture medium was then added to the suspension of transfected cells, and incubation was performed at 37° C. in a humidified atmosphere with 5% CO2. Cell cultures were monitored for the appearance of cytopathic effect (CPE).
(§3) The inhibitory antiviral activity of different compounds was determined in a cell-based HIV-1 replication assay. MT4-LTR-EGFP cells (150,000 cells/ml) were infected with HIV-1 (IIIB or SDM strains Q148R, N155H, or G140S-Q148H; multiplicity of infection [MOI] of 0.0025) in the presence or absence of inhibitor. After 3 days of incubation, the inhibition of HIV replication was quantified by measuring EGFP fluorescence, and expressed as the compound concentration required for 50% inhibition of HIV-1 replication in cell culture (EC50).

HIV-1 SDM strain N155H = experiment: cell-based HIV-1 replication assay in MT4-LTR-EGFP cells, N155H mutant; details: fold change in activity against N155H mutant compared to wild type HIV
From the text: as §1, §2, §3

[1] = tested on: HIV-1 SDM strain G140S-Q148H; experiment: cell-based HIV-1 replication assay in MT4-LTR-EGFP cells, G140S-Q148H mutant; details: fold change in activity against G140S-Q148H mutant compared to wild type HIV
From the text: as §1, §2, §3

HIV-1 LAI (IIIB) = experiment: antiviral assay in the presence of 50% human serum; assay type: cell-based; details: MT-4-LTR-EGFP cells, 4 days, resazurin cell viability
Method: For the antiviral assay in the presence of 50% human serum, MT-4-LTR-EGFP cells were infected with HIV-1 LAI (IIIB) at a MOI of 0.001 to 0.01 CCID50/cell in RPMI1640 medium. Following 1 h of incubation, cells were washed and plated into a 96-well plate containing serial dilutions of test compound in the presence of 10% fetal calf serum or 50% human serum. After 4 days of incubation, the EC50 in the presence of 50% human serum (EC50/HS) was determined by a cell viability assay using resazurin (as described by Fields, R. D., and M. V. Lancaster (1993) Am. Biotechnol. Lab. 11:48-50).

[2] = pharmacokinetic evaluation in the rat; assay type: in vivo, male Sprague-Dawley rats; details: intravenous bolus 2 mg/kg; for CLp: plasma clearance; for t1/2: terminal phase elimination half-life; for Vss: volume of distribution at steady-state
Method: For determining the pharmacokinetic properties in rat, each HIV integrase inhibitor was dissolved in PEG400/normal saline (70:30 (v/v)) at a nominal concentration of 1 mg/ml and administered (2 ml/kg) to male Sprague-Dawley rats (n=3 per test compound) as an intravenous bolus via a saphenous vein at a dose level of 2 mg/kg. […] Plasma was obtained by centrifugation and stored at −20° C. prior to analysis. Analysis was performed using liquid chromatography (LC) with tandem mass spectrometric detection (MS/MS) in positive ion mode. Each HIV integrase inhibitor was eluted from a reversed-phase column with a gradient of acetonitrile and water containing 0.1% (v/v) formic acid. At the time of analysis plasma samples (50 p. 1) were thawed and […] with 200 μl of acetonitrile containing 0.1% (v/v) formic acid and centrifuged. Aliquots of the supernatant (100 μl) were diluted with 200 μl of water containing 25% (v/v) methanol and 0.1% (v/v) formic acid and injected via an electrospray interface directly into the Mass Spectrometer. Calibration standards and quality controls were prepared in rat plasma at the same time as the samples and analyzed before and after the samples containing HIV integrase inhibitor. Non-compartmental pharmacokinetic analysis of the plasma concentration-time curves was performed using WinNonLin software to provide estimates of the plasma clearance (CLp), volume of distribution at steady-state (Vss) and terminal phase elimination half-life (t1/2).

[3] = tested on: cryopreserved hepatocytes from Sprague Dawley rats; experiment: metabolic stability in rat hepatocytes; assay type: in vitro ADME; details: 1 μM, percentage turnover; for Rat (% TO) 15 min: 15 min incubation; for Rat (% TO) 60 min: 60 min incubation
Method: (§4) For determining in vitro metabolic stability, cryopreserved hepatocytes from Sprague Dawley rats and of human subjects (pool of male and female) were obtained from an external supplier (Cellz Direct Inc., Paisly, UK). Tested compounds were dissolved in DMSO and this stock solution was used to spike rat and human hepatocyte cell cultures (10^6 cells/ml) at a final concentration of 1 μM (final percentage of DMSO was 0.02% (v/v)). Incubations were performed for up to 60 min at approximately 37° C. and terminated by the addition of two volumes of DMSO. Samples were then centrifuged and aliquots of the supernatant analyzed using liquid chromatography (LC) with electrospray mass spectrometric detection (MS/MS) to monitor the disappearance of parent compound by single reaction monitoring (SRM) and reverse-phase chromotatography with a gradient of acetonitrile and water containing 0.1% (v/v) formic acid. Based on peak area, the percentage of parent compound remaining after 15 and 60 min incubation was calculated and the results, expressed as percentage turnover (TO) relative to time zero controls.

[4] = tested on: cryopreserved hepatocytes of human subjects; experiment: metabolic stability in human hepatocytes; assay type: in vitro ADME; details: 1 μM, percentage turnover; for Human (% TO) 15 min: 15 min incubation; for Human (% TO) 60 min: 60 min incubation
Method: as §4

SMILES | FC-Q148R (HIV-1 SDM strain Q148R) | FC-N155H (HIV-1 SDM strain N155H) | FC-G140S-Q148H [1] | EC50 (HIV-1 LAI (IIIB)) | CLp [2] | t1/2 [2] | Vss [2] | Rat (% TO) 15 min [3] | Rat (% TO) 60 min [3] | Human (% TO) 15 min [4] | Human (% TO) 60 min [4]
CCN1C[C@H](C)n2c(c(O)c3c(=O)n4nc(c32)N(C)S(=O)(=O)CCCCCOc2cc(F)ccc2C4)C1=O [Compound 5] | 0.5 | 2.4 | 1.2 | 16 nM | 8 mL/min/kg | 4.9 h | 1.5 L/kg | 15 % TO | 20 % TO | 12 % TO | 38 % TO
CC(C)N1C[C@H](C)n2c(c(O)c3c(=O)n4nc(c32)N(C)S(=O)(=O)CCCCOc2cc(F)ccc2C4)C1=O [Compound 6] | 0.7 | 3.2 | 1.7 | 5 nM | 5 mL/min/kg | 5.5 h | 0.7 L/kg | 20 % TO | 33 % TO | 23 % TO | 36 % TO
CC(C)N1C[C@H](C)n2c(c(O)c3c(=O)n4nc(c32)N(C)S(=O)(=O)CCCCCOc2cc(F)ccc2C4)C1=O [Compound 7] | 0.4 | 2.2 | 1.0 | 12 nM | 7 mL/min/kg | 4.8 h | 0.9 L/kg | 21 % TO | 31 % TO | 2 % TO | 12 % TO
CCN1C[C@H](C)n2c(c(O)c3c(=O)n4nc(c32)N(C)S(=O)(=O)CCCCNC(=O)c2cc(F)ccc2C4)C1=O [Compound 22] | 0.5 | 6.0 | 1.7 | 14 nM | 12 mL/min/kg |  | 0.6 L/kg |  |  |  | 
CCN1C[C@H](C)n2c(c(O)c3c(=O)n4nc(c32)C(=O)N(C)CCCCCOc2cc(F)ccc2C4)C1=O [Compound 31] | 0.6 | 4.6 | 7.0 | 21 nM | 13 mL/min/kg | 8.1 h | 6 L/kg |  |  |  | 
CCN1CCCCCOc2cc(F)c(Cl)cc2Cn2nc(c3c(c(O)c4n3[C@@H](C)CN(CC)C4=O)c2=O)C1=O [Compound 33] | 0.5 | 5.1 | 2.5 | 147 nM | 11 mL/min/kg | 4.2 h | 1.3 L/kg |  |  |  | 
CCN1C[C@H](C)n2c(c(O)c3c(=O)n4nc(c32)NCCCCCNC(=O)c2cc(F)ccc2C4)C1=O [Compound 40] | 0.4 | 6.2 | 3.1 | 1100 nM |  |  |  |  |  |  | 
CCN1C[C@H](C)n2c(c(O)c3c(=O)n4nc(c32)NCCCCCCNC(=O)c2cc(F)ccc2C4)C1=O [Compound 41] | 0.4 | 6.0 | 2.8 | 1110 nM | 7 mL/min/kg | 5.4 h | 0.7 L/kg |  |  |  | 
CCN1C[C@H](C)n2c(c(O)c3c(=O)n4nc(c32)NCCCCCCN(C)C(=O)c2cc(F)ccc2C4)C1=O [Compound 42] | 0.5 | 3.3 | 2.6 | 3170 nM |  |  |  |  |  |  | 
CCN1C[C@H](C)n2c(c(O)c3c(=O)n4nc(c32)N(C)CCCCCCNC(=O)c2cc(F)ccc2C4)C1=O [Compound 43] | 0.5 | 2.0 | 0.8 | 101 nM |  |  |  |  |  |  | 
CCN1C[C@H](C)n2c(c(O)c3c(=O)n4nc(c32)N2CCN(CC2)C(=O)CCCOc2cc(F)ccc2C4)C1=O [Compound 44] | 0.7 | 3.9 | 1.3 | 6 nM | 16 mL/min/kg | 5.2 h | 1.8 L/kg | 48 % TO | 70 % TO | 20 % TO | 43 % TO
CCN1C[C@H](C)n2c(c(O)c3c(=O)n4nc(c32)N2CCN(CC2)C(=O)CCCCOc2cc(F)ccc2C4)C1=O [Compound 45] | 0.8 | 4.3 | 1.6 | 6 nM | 8 mL/min/kg | 4.2 h | 0.9 L/kg |  |  |  | 
CCN1C[C@H](C)n2c(c(O)c3c(=O)n4nc(c32)N(C)CCCCCCOc2cc(F)ccc2C4)C1=O [Compound 46] | 0.3 | 40.8 | 3.6 | 1490 nM |  |  |  |  |  |  | 
CCN1C[C@H](C)n2c(c(O)c3c(=O)n4nc(c32)N2CCN(CCCCOc3cc(F)ccc3C4)S2(=O)=O)C1=O [Compound 47] | 0.7 | 4.4 | 3.2 | 4 nM |  |  |  |  |  |  | 
CCN1C[C@H](C)n2c(c(O)c3c(=O)n4nc(c32)N(C)S(=O)(=O)CC/C=C\COc2cc(F)ccc2C4)C1=O [Compound 49] | 0.5 | 5.3 | 1.6 | 8 nM |  |  |  |  |  |  | 
CCN1C[C@H](C)n2c(c(O)c3c(=O)n4nc(c32)N(C)S(=O)(=O)CCC/C=C\COc2cc(F)ccc2C4)C1=O [Compound 50] | 0.3 | 2.8 | 1.2 | 11 nM |  |  |  |  |  |  | 
CCN1C[C@H](C)n2c(c(O)c3c(=O)n4nc(c32)N(C)S(=O)(=O)CCC/C=C/COc2cc(F)ccc2C4)C1=O [Compound 51] | 0.4 | 9.6 | 3.4 | 13 nM |  |  |  |  |  |  | 
